Results: patent US9457044B2, “Methods and compositions for wound healing” (CoDa Therapeutics, Inc., priority 2006, dated 2016)

Legend:
[1] = test system: Swiss 3T3 fibroblasts; test: Cell migration assay by wounding (fibroblast scrape wound assay); format: cell-based; settings: 20 μM for two hours before scrape wound; 4 hours after wounding
Description: Swiss 3T3 fibroblasts were grown in Dulbecco's modified Eagle's medium (DMEM; Gibco) supplemented with 10% fetal calf serum (Labtech) and 1% penicillinstreptomycin solution (Sigma, Poole) in a 5% CO2 incubator at 37° C. Unless otherwise stated, the cells were maintained in this medium for most experiments. The cells were passaged by trypsinization and used at passages 6-10 at a confluency of Z 90%. Cells were plated on 13 mm glass coverslips in 24-well dishes (Nunc) with 4−5×10^5 cells per well containing 1 ml of medium. Cells reached confluency after 72 hours and were then used for experimentation.
The fibroblast cell assay involved creating a “wound” in a confluent monolayer of fibroblast cells. This widely used in vitro technique mimics the behaviour of migrating cells in vivo (Lampugnani, M. G. (1999) Cell Migration into a wounded area in vitro. Methods Mol Biol 96: 177-182). Wounding was performed by drawing a microelectrode across the coverslip, producing a lesion of standard width. Phase contrast images were acquired using a ×5 objective on a Zeiss inverted microscope with an incubation chamber at 370 and 5% CO2. […] Migration was quantified by image analysis, measuring the change in wound area (pixels) using Image J software (NIH). […]

[2] = test system: Cx43 mRNA; test: Real-Time PCR of Cx43 mRNA at skin wound sites; format: in vivo, mice
Description: (§1) Male, 8 week old, ICR mice were used in the following experiments. All the mice were kept under specific pathogen-free conditions in an environmentally controlled clean room at University College London and all the experiments were carried out under UK Home Office regulations. Mice were anaesthetized by halothane inhalation. Four full-thickness excisional wounds of 6 mm diameter were made on the shaved back on either side of the dorsal midline with a 6 mm biopsy punch (Kai Industries). To each pair of wounds a single topical application of 50 μl of 1 μM Cx43 as ODN (SEQ. ID No. 2) (Sigma-Genosys) in 30% Pluronic F-127 gel (Sigma-Aldrich), chilled on ice, was made to one wound, and an identical application of 1 μM sense control sODNs was made to the other. […] R. and Becker, D. L. (2003). Targeting connexin 43 expression accelerates the rate of wound repair. Curr Biol 13, 1697-703). Each wound region was digitally photographed at the indicated time intervals, and the areas of the wounds were calculated. All wound areas were expressed as percentages of the initial wound areas. In some series of experiments, wounds and their surrounding area, including the scab and epithelial margins, were harvested with an 8 mm biopsy punch (Kai Industries) at the indicated time intervals after mice were killed with an overdose of chloroform. A minimum of eight mice were used for each time point examined.
Total RNA was extracted from skin wound samples using TRIzol Reagent (Invitrogen), according to the manufacturer's instructions. Ten micrograms of total RNA was reverse-transcribed into cDNA using the SuperScript First-Strand Synthesis System for RT-PCR (Invitrogen).
Gene specific primers and probe were obtained as TaqMan® Gene Expression Assays (Applied Biosystems) for Cx43, Ccl2, Co1α1, TNFα and TGFβ1. The enzyme and buffer system was purchased as TaqMan® Universal PCR Master Mix (Applied Biosystems). Each sample was analyzed in duplicate. Amplification and real-time detection was performed in the DNA Engine Opticon®2 (MJ Research Inc.). […]

[3] = test system: Cx43 protein; settings: within two hours; Becker 1999, McGonnell 2001, Qiu 2003; cited from earlier work
[4] = test system: skin wounds; settings: Qiu 2003; Coutinho 2005; cited from earlier work
[5] = test system: human limbal epithelial cells; test: Human limbal rim-denuded pig stromal matrix chimera re-epithelialisation; format: cell-based; settings: treated at day one; controls 7 to 14 days
Description: Human limbal rims returned from surgery after excision of the central corneas for keratoplasty (transplant) were placed into air liquid interface organotypic culture and a denuded pig stromal extracellular matrix inserted into the central region (FIG. 14). The pig stromal matrix was denuded (cells removed) by freeze-thawing in liquid nitrogen.
The chimeras were grown for up to 2 weeks at which time the human limbal epithelial cells have re-epithelialised the pig stroma with a normal 5-7 cell layer fully differentiated epithelium. In addition, human limbal stromal keratocytes have proliferated and migrated across the limbal rim—stromal insert to repopulate the pig stromal matrix with human keratocytes.
In a further experiment the chimeras were treated with connexin 43 specific antisense ODNs at day one.

[6] = test system: BrdU-positive cells; test: BrdU labeling of proliferating cells at wound sites; format: in vivo, mice
Description: as §1
In another experiment, wounded mice were injected intraperitoneally with 1 ml of BrdU (Sigma) in PBS solution (1 mg/ml) 2 hours before harvesting on days 1, 2, and 7. Wound tissues were fixed in 4% formaldehyde buffered with PBS, and embedded in paraffin. Deparaffinized sections (6 μm thick) were treated with a HistoMouse™-Plus Kit (ZYMED Laboratories, Inc) to reduce background signals according to manufacturer's instructions. […]
A treatment-blinded observer counted MPO-positive neutrophils and F4/80-positive macrophages in the wound bed (defined as the area surrounded by unwounded skin, fascia, regenerated epidermis, and eschar) in 3 random high-power fields of 0.332 mm^2. BrdU-positive cells in the wound margin and the nascent epidermis regions of each immunohistochemically stained section were counted as described previously and expressed per […] of epidermis (Mori, R., Kondo, T., Nishie, T., Ohshima, T. and Asano, M. (2004). Impairment of skin wound healing in beta-1,4-galactosyltransferase-deficient mice with reduced leukocyte recruitment. Am J Pathol 164, 1303-14). Number of fibroblast like cells (phalloidin-positive cells with spindle-shape body) at the wound margin were counted in high-power fields also (each field was 0.332 mm^2). […] Images were made binary at a standard threshold and positive pixels were counted using Image J (NIH Image).

GTAATTGCGGCAGGAGGAATTGTTTCTGTC (antisense GTAATTGCGGCAGGAGGAATTGTTTCTGTC; in Pluronic F-127 gel, further chemistry not given here) [Cx43 asODN]
rate of wound closure in fibroblast cultures compared to controls [1]: significantly (P=0.02) enhanced | expression of Cx43 mRNA relative to GAPDH ([2]; 7 days after the injury): 4.6 units | reduction of Cx43 mRNA versus control sODN-treated wounds ([2]; one day after injury, P<0.05): 37% | expression of Cx43 mRNA relative to GAPDH ([2]; one day after injury, single topical 50 μl of 1 μM in 30% Pluronic F-127 gel): 2.95 units | knockdown of Cx43 protein at the site of delivery [3]: significant knockdown | healing of skin wound and burn injury sites versus control sODN [4]: significantly accelerated healing | time to full epithelial covering of the pig stroma [5]: ≤ 3 days | keratinocyte proliferation in the epidermal wound margin, control versus treated ([6]; FIG. 2E): little difference | BrdU-positive cells in the dermal wound margin ([6]; FIG. 2G): slightly more cells | BrdU-positive cells in the nascent epidermis ([6]; after both 2 days and 7 days): significantly increased numbers | BrdU-positive cells in the granulation tissue ([6]; days 1 and 2): significantly more
